Experimental findings from ChEMBL document CHEMBL1129134, “DNA threading agents: effect of sidechain bulk on DNA binding and cytotoxicity of 9-anilinoacridine-4-carboxamides” (Bioorg Med Chem Lett, 1996) are described below.

SMILES strings stand for the structures.

The subject of the test is HT-29. The test is described as follows: Compound was tested for biological activity against human colon carcinoma cell line HT-29/219. The test is classed as functional, cell-based.
As for `Nc1c2ccccc2nc2c(C(=O)NC3CC3)cccc12`, the IC50 worked out at 5.8 µM.

Regarding `Nc1c2ccccc2nc2c(C(=O)NC34C[C@H]5C[C@@H](C3)C[C@@H](C4)C5)cccc12`, the midpoint of inhibition, the IC50, lay at 0.57 µM.

Take `CN(C)CCNC(=O)c1cccc2c(N)c3ccccc3nc12`: the midpoint of inhibition, the IC50, lay at 0.14 µM.

Compound `COc1cc(NS(C)(=O)=O)ccc1Nc1c2ccccc2nc2c(C(=O)NC34C[C@H]5C[C@@H](C3)C[C@@H](C4)C5)cccc12` showed an IC50 of 9.8 µM.

Compound `COc1cc(NS(C)(=O)=O)ccc1Nc1c2ccccc2nc2c(C(=O)NC3CCCCCCC3)cccc12` gave an IC50 of 5.8 µM.

Compound `Nc1c2ccccc2nc2c(C(=O)NC3CCCCCCC3)cccc12` had an IC50 of 5.2 µM.

With `COc1cc(NS(C)(=O)=O)ccc1Nc1c2ccccc2nc2c(C(=O)NCCN(C)C)cccc12`, the IC50 turned out to be 0.061 µM.

For `COc1cc(NS(C)(=O)=O)ccc1Nc1c2ccccc2nc2c(C(=O)NC3CCCCC3)cccc12`, the IC50 is 4.7 µM.

Regarding `COc1cc(NS(C)(=O)=O)ccc1Nc1c2ccccc2nc2c(C(=O)NC3CCCCCCCCCCC3)cccc12`, the IC50 was 3.3 µM. The IC50 values of the last two compounds are within 1.5-fold of each other.

As for `COc1cc(NS(C)(=O)=O)ccc1Nc1c2ccccc2nc2c(C(=O)NC3CC3)cccc12`, the IC50 amounted to 3.6 µM.

Turning to `Nc1c2ccccc2nc2c(C(=O)NC3CCCCCCCCCCC3)cccc12`, the IC50 amounted to 7.7 µM.

`Nc1c2ccccc2nc2c(C(=O)NC3CCCCC3)cccc12`: 5.6 µM corresponded to half-maximal inhibition (IC50).

What is called IC50 is the concentration at which inhibition is half-maximal. Higher therefore signals a need for much substance.
